Data reported in patent publication US20140135310A1, “SULPHONAMIDE DERIVATIVES OF ALICYCLIC AMINES FOR THE TREATMENT OF CENTRAL NERVOUS SYSTEM DISEASES” (Adamed Sp. z o.o., priority 2011, published 2014).

Legend:
[1] = target: T1, α2C adrenergic receptors (Homo sapiens, UniProt P18825); assay: Radioligand binding assay, adrenergic α2C receptors; conditions: test compound 1×10^−6 M
T1 construct: expressed in transfected cells; host or cells: CHO cells
T1 sequence (P18825 1-462): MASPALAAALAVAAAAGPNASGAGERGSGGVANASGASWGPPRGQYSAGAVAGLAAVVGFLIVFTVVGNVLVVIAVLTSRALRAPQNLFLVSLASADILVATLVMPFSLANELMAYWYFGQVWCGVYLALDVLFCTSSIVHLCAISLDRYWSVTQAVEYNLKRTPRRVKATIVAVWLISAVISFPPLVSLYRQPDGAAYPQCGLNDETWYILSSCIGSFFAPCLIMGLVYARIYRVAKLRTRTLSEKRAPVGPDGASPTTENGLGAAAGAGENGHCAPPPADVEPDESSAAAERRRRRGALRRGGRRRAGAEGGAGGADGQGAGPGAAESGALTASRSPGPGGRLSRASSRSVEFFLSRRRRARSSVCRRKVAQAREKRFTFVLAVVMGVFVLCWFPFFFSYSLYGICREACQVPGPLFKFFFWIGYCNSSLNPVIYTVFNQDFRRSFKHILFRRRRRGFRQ
Method in brief: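 Competitive radioligand binding at human α2C receptors, with scintillation counting. Nonspecific binding defined with excess unlabelled ligand; results given as % inhibition of control specific binding. IC50 from Hill-equation fits of competition curves; Ki via Cheng-Prusoff using radioligand concentration and Scatchard-derived KD.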

[2] = target: T2, 5-HT7 receptor (Homo sapiens, UniProt P34969); assay: Radioligand binding assay, serotoninergic 5-HT7 receptors; conditions: binding assay result in %, Table 5a
T2 construct: purchased PerkinElmer
Method in brief: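 Ki values used the Cheng–Prusoff equation, with KD from Scatchard analysis, applied to IC50 from Hill fits of human 5-HT7 radioligand competition curves. Bound radioligand was counted by scintillation, and excess unlabelled ligand set the non-specific binding.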

[3] = target: dopaminergic receptors D2 (Homo sapiens, UniProt P14416); assay: Radioligand binding assay, dopaminergic D2 receptors; conditions: for inhibition at 1 µM / D2 [%]: binding assay, test compound 1×10^−6 M
Method in brief: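 Scintillation read-out. Specific = total − nonspecific (excess cold ligand). Data as % of control specific binding / % inhibition; IC50 by Hill fit; Ki = IC50/(1+L/KD), KD from Scatchard plot.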

[4] = target: T3, serotonin transporter (SERT) (Homo sapiens, UniProt P31645); assay: Radioligand binding assay, serotonin transporter (SERT); conditions: for inhibition at 1 µM / SERT [%]: binding assay, test compound 1×10^−6 M
T3 construct: expressed in transfected cells; host or cells: CHO cells
Method in brief: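 Values are derived from competition curves fitted by the Hill equation to give IC50, then converted to Ki by Cheng-Prusoff with radioligand Kd from Scatchard analysis. Specific binding equals total minus non-specific (excess cold ligand), counted by scintillation, and is also expressed as percent inhibition of control.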

[5] = target: T4, H1 histaminergic receptors (Homo sapiens, UniProt P35367); assay: Radioligand binding assay, histaminergic H1 receptors; conditions: human recombinant (HEK-293 cells), [3H]pyrilamine 1 nM
T4 construct: expressed in transfected cells; host or cells: HEK-293 cells
Method in brief: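 Competition binding at human H1 receptors; specific binding taken as total minus non-specific binding in excess unlabelled ligand, scintillation read-out. IC50 from Hill-equation fit of competition curves; Ki by Cheng-Prusoff using radioligand concentration and Kd (from Scatchard plot).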

[6] = target: T5, 5-HT1A receptor (rat hippocampus) (Rattus norvegicus, UniProt P19327); assay: Radioligand binding assay, serotoninergic 5-HT1A receptors; conditions: binding assay result in %, Table 5a
T5 construct: hippocampus; from tissue; host or cells: rat hippocampus
T5 sequence (P19327 1-422): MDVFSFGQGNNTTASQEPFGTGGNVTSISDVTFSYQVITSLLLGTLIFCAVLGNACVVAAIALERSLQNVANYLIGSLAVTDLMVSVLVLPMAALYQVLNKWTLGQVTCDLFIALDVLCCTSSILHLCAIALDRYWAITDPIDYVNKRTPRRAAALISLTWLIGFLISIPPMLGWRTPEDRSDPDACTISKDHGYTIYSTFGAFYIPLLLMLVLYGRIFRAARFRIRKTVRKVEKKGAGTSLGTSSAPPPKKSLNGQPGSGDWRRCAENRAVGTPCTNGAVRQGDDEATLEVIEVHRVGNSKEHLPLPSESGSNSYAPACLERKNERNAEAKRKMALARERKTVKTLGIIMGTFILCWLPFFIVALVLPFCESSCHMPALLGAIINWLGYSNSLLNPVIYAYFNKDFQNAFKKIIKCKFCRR

[7] = target: T6, 5-HT2C receptor (Homo sapiens, UniProt P28335); assay: Radioligand binding assay, serotoninergic 5-HT2C receptors; conditions: test compound 1×10^−6 M
T6 construct: expressed in transfected cells; host or cells: HEK-293 cells
T6 sequence (P28335 33-458): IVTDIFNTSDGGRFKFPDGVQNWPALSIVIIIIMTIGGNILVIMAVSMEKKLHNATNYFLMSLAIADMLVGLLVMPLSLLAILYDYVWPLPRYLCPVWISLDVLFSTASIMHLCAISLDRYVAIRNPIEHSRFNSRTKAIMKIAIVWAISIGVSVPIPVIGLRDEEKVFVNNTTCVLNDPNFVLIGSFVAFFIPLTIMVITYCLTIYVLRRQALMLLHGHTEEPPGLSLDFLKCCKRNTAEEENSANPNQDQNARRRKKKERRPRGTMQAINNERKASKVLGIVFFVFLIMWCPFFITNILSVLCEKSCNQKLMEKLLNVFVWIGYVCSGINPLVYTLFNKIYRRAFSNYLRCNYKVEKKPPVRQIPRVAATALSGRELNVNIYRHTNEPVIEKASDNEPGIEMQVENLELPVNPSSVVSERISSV

T4 sequence (P35367 whole entry): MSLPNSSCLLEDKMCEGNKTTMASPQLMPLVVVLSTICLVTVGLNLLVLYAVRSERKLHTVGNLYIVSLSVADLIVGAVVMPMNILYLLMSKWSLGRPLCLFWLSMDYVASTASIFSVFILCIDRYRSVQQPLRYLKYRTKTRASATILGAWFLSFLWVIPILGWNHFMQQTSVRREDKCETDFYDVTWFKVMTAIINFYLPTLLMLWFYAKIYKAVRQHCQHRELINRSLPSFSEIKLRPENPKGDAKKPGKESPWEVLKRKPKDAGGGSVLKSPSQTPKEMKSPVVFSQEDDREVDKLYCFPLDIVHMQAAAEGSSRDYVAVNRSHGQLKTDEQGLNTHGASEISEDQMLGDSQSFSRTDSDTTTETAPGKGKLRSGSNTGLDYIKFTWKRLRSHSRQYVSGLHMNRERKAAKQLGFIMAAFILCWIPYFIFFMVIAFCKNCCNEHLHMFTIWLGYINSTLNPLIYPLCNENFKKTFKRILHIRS
T2 sequence (P34969 whole entry): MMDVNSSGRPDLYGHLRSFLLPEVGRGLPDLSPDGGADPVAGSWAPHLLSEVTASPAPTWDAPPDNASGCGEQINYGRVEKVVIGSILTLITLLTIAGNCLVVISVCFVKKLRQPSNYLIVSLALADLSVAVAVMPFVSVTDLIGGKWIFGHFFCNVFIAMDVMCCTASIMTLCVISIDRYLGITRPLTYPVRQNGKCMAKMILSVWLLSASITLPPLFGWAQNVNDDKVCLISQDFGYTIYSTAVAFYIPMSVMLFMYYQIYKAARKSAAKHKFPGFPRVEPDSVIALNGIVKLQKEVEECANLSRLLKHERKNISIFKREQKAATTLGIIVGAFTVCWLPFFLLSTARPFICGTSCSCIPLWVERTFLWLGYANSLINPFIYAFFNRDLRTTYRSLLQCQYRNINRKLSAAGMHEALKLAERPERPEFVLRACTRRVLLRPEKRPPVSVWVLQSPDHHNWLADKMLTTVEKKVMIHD
dopaminergic receptors D2, sequence (P14416 whole entry): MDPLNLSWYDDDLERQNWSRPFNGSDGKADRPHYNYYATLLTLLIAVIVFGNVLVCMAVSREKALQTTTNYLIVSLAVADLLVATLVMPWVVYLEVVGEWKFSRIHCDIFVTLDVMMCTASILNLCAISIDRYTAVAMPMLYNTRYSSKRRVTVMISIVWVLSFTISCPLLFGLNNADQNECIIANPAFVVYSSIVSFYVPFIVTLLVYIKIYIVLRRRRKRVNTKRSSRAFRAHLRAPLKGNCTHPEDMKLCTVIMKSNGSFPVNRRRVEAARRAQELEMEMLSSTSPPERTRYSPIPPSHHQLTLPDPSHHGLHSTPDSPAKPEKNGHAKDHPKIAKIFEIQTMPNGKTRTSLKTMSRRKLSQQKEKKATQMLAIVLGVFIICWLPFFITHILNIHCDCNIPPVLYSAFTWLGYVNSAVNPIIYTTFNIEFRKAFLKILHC
T3 sequence (P31645 whole entry): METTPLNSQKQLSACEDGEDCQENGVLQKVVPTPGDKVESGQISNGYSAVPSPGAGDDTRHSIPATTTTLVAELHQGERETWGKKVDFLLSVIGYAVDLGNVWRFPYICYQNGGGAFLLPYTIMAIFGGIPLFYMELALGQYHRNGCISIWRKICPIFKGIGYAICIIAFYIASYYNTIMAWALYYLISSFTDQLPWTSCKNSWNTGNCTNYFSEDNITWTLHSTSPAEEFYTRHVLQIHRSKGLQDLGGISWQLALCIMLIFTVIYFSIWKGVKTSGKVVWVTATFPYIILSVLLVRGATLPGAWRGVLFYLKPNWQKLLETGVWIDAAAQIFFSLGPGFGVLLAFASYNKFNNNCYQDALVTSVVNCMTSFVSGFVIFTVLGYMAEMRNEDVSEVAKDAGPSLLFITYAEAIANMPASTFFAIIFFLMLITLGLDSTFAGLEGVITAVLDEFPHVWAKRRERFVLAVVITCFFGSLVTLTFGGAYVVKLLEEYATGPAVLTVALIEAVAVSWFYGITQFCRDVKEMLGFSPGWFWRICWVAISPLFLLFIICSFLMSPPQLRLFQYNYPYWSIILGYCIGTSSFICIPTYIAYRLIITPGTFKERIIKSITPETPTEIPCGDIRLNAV

Structure (SMILES)	inhibition at 1 µM [1] [%]	inhibition at 1 µM [2] [%]	inhibition at 1 µM [3] [%]	inhibition at 1 µM [4] [%]	Ki ([4]; read-out: Inhibition constants Ki for SERT, SERT) [nM]	inhibition at 1 µM [5] [%]	inhibition at 1 µM [6] [%]	inhibition at 1 µM [7] [%]	α2C [%] [1] [%]	5-HT7 [%] [2] [%]	D2 [%] [3] [%]	SERT [%] [4] [%]	H1 [%] [5] [%]	5-HT1A [%] [6] [%]	5-HT2C [%] [7] [%]	Ki ([3]; read-out: Inhibition constants Ki for D2 receptors, D2) [nM]
O=S(=O)(NC1CCN(CCCc2c[nH]c3ccc(Cl)cc23)C1)c1cccc(Cl)c1 (stereo not drawn) [Compound 84, 3-Chloro-N-[1-[3-(5-chloro-1H-indol-3-yl)propyl]pyrrolidin-3-yl]benzenesulphonamide]	105	98	89	104	2.6	79	99	88								
O=S(=O)(NC1CN(CCOc2cccc3c2OCCO3)C1)c1cccc(F)c1 [Compound 89, N-[1-[2-(2,3-Dihydro-1,4-benzodioxan-8-yloxy)ethyl]azetidin-3-yl]-3-fluoro-benzenesulphonamide]									69	96	24	3	3	98	53	
O=S(=O)(NC1CN(CCOc2cccc3c2OCCO3)C1)c1ccc(Cl)cc1 [Compound 92, 4-Chloro-N-[1-[2-(2,3-dihydro-1,4-benzodioxan-8-yloxy)ethyl]azetidin-3-yl]benzene-sulphonamide]									76	99	49	10	6	100	52	
Cc1cccc(S(=O)(=O)NC2CN(CCOc3cccc4c3OCCO4)C2)c1 [Compound 93, N-[1-[2-(2,3-Dihydro-1,4-benzodioxan-8-yloxy)ethyl]azetidin-3-yl]-3-methyl-benzenesulphonamide]									84	99	78	23	34	98	50	
CC1(C)Cc2cccc(OCCN3CCC(NS(=O)(=O)c4ccc5ccccc5c4)CC3)c2O1 [Compound 110, N-[1-[2-[(2,2-Dimethyl-3H-benzofuran-7-yl)oxy]ethyl]-4-piperidine]naphthalene-2-sulphonamide]									98	99	74	39	52	95	85	
O=S(=O)(NCC1CN(CCCc2noc3cc(F)ccc23)C1)c1cc2ccccc2s1 [Compound 127, N-[[1-[3-(6-Fluoro-1,2-benzoxazol-3-yl)propyl]azetidin-3-yl]methyl]benzo-thiophene-2-sulphonamide]	93					54		84		96	95	49		71		22
O=S(=O)(NCC1CN(CCCc2noc3cc(F)ccc23)C1)c1ccc(-c2ccccc2)cc1 [Compound 135, N-[[1-[3-(6-Fluoro-1,2-benzoxazol-3-yl)propyl]azetidin-3-yl]methyl]-4-phenyl-benzenesulphonamide]	95	97	92	68		79	77	86								
